The values that follow come from PMC12559310, “Tumor-targeted top1 inhibitor delivery with optimized parp inhibition in advanced solid tumors: a phase i trial of gapped scheduling” (Nature Communications, 2025).

“And” between values parts separate entries of the source, which are not always exact repeats. Equal entries are not always repeated. Where two headings read alike, the source gives them in different places.

Series [1] concerns patients with solid tumors. To be noted: cited from earlier work.
For series [2], the system named is patients with advanced solid tumors. The series is described as follows: Phase I dose escalation (3 + 3 design): DLTs and MTD/RP2D of CRLX101 plus olaparib. It counts as in vivo, human. To be noted: CRLX101 12 mg/m2 combined with Olaparib 250 tab bid; % of single-agent MTD; Current study. From the text: Olaparib tablets were given at escalating doses across cohorts (as shown in Fig. 1), administered twice daily on days 3–13 and 17–26 of the treatment cycle.
A standard 3 + 3 design was used for dose escalation. […] DLTs were based on toxicities observed during the first cycle. […] Study treatment was discontinued if there was a > 3-week delay in reinstitution of treatment due to drug-related toxicity during a cycle. Dose reductions were allowed for toxicities. A maximum of two dose reductions were allowed. Dose re-escalation was not allowed.

Series [3] concerns patients with advanced solid malignancies. The conditions noted are these: cited from earlier work.
Series [4] concerns γ-H2AX. The series is described as follows: γ-H2AX foci per cell in PBMCs. It counts as in vivo, human. To be noted: for γ-H2AX foci per cell in PBMCs Minus D1, averages (Fig 3G) / γ-H2AX foci per cell in PBMCs, averages (Fig 3G): D3 (before olaparib); for γ-H2AX, AVERAGES foci per cell / γ-H2AX, AVERAGES excess foci per cell: PBMCs; for γ-H2AX, AVERAGES foci per cell: D3 (48 h after CRLX101, before olaparib). As for the experimental part: (§1) PBMCs were isolated by Ficoll gradient, washed 3 times with phosphate-buffered saline (PBS), fixed in 2% paraformaldehyde (PFA) for 20 min, washed 3 times with PBS, and spotted on slides by cytospin (800 rpm/4 min). PBMCs on slides were permeabilized with pre-chilled ethanol 70% and slides were stored at 4 °C overnight. […] Finally, slides were incubated at 37 °C for 5 min with a solution containing RNAse A (0.5 mg/mL) and propidium iodide (PI) (5 µg/mL). Slides were then mounted with mounting medium containing PI (Vectashield, Vector Laboratories, Inc., Burlingame, CA, USA) and sealed with nail polish.
(§2) Samples were imaged by laser scanning confocal microscopy (Zeiss LSM 710 NLO). Optical sections through PBMCs and hair bulbs were combined in a maximum projection using the Zeiss Zen software. The foci were counted in PBMCs using the FociCounter software[55] by analyzing at least 200 cells, while γ-H2AX intensities were measured in the extremity of the hair bulbs with the Image J software. The above antibodies have been used in previous studies[56],[57].

The test system of series [5] is γ-H2AX. The series is described as follows: γ-H2AX intensity in plucked hair bulbs. To be noted: for gamma-H2AX intensities / excess gamma-H2AX intensities (minus D1) / gamma-H2AX intensities minus D1, averages / gamma-H2AX intensities, averages: plucked hairs; for gamma-H2AX intensities / excess gamma-H2AX intensities (minus D1): D3 (48 h after CRLX101, before olaparib); for gamma-H2AX intensities minus D1, averages / gamma-H2AX intensities, averages: D3 (before olaparib). It counts as in vivo, human. As for the experimental part: as §1
Hair bulbs were collected in 1.5 microtubes filled with cold PBS and placed on ice directly after plucking. Plucked hairs were then fixed for 20 min at room temperature with 2% PFA in 1.5 microtubes. Following 3 washes with 1 ml PBS, plucked hairs were imaged, and anagen hair bulbs hairs were selected for γ-H2AX detection. Samples were permeabilized with pre-chilled ethanol 70%, washed, and stored at 4 °C until use. γ-H2AX detection was performed as described for PBMCs, but times for blocking and staining procedures were increased by 50%. Washes were performed by 3 washes with PBS. After incubation with the RNAse and PI solution at 37 °C for 30 min, hair shafts were detached from the bulbs by using a razor blade, and hair bulbs were mounted between a slide and a coverslip with mounting medium containing PI and sealed with nail polish.
as §2

In the next series the test system is SCLC cell lines. On the set-up: method as in protocol [5]. To be noted: pre-clinical models of SCLC; ref protocol [5]; cited from earlier work.
The mark [6] stands for this setting: phase 1/2a patients receiving the MTD (n=44), no grade 4.

Turning to `CCc1c2c(nc3ccc(OC(=O)N4CCC(N5CCCCC5)CC4)cc13)-c1cc3c(c(=O)n1C2)COC(=O)[C@]3(O)CC` [Irinotecan], the “Topo1i % of MTD” value in series [1] (Irinotecan 100 mg/m2 with Veliparib 40 bid d1-14, ref LoRusso, Clin Can Res, 2016) was 80%; in series [1] (Irinotecan 125 mg/m2 q2w with Olaparib 50 mg bid d1-5, ref Chen, Inv New Drugs, 2016) it was 69%; in series [1] (Irinotecan 200 mg/m2 q3w with Olaparib 50 mg qd d1-21, ref Chen, Inv New Drugs, 2016), 57%.

Regarding `C[C@]1(c2nc3c(C(N)=O)cccc3[nH]2)CCCN1` [veliparib], the “PARPi % of MTD” value in series [1] (Veliparib 50 mg BID with Liposomal Irinotecan 70 mg/m2 q2w, ref LaRose, Oncologist, 2023) is on record as 13%; in series [1] (Veliparib 300 mg bid with Topotecan 3 mg/m2 d2,9,16, ref Hendrickson, Clin Can Res, 2017), 75%; in series [1] (Veliparib 10 bid d1-5 with Topotecan 0.6 mg/m2/d1-5, % of single-agent MTD, ref Kummar, Can Res, 2011), 3%; in series [1] (Veliparib 10 bid d1-5 with Topotecan 0.6 mg/m2/d1-5, % of single-agent MTD, ref Kummar, Can Res, 2011, listed as Veliparib) it was “≈ 3%”; in series [1] (Veliparib 40 bid d1-14 with Irinotecan 100 mg/m2, ref LoRusso, Clin Can Res, 2016), 10%.

Turning to Poly-CD-PEG-Camptothecin [CRLX101], in series [2], the “Topo1i % of MTD” value worked out at 80%. Also, the “Best overall response stable disease” value is 73% in series [3] (16 of a subset of NSCLC patients) and 64% in series [3] (28 patients treated at the MTD). The MTD in series [3] (CRLX101 monotherapy, bi-weekly, IV over 60 min, ref protocol [15]) was 15 mg/m2. The “Median progression-free survival (PFS)” value in series [3] (patients treated at the MTD) is recorded as 3.7 months; in series [3] (subset of NSCLC patients), 4.4 months. In series [3] (setting [6]), the “Grade 3 fatigue” value was 9%. Moreover, the “Grade 3 neutropenia” value in series [3] (setting [6]) is listed as 9%. In addition, the “γ-H2AX foci per cell in PBMCs Minus D1, averages (Fig 3G)” value is 0.009559 in the series with γ-H2AX [4] (DL1); -0.04097 in the series with γ-H2AX [4] (DL2); 0.07028 in the series on γ-H2AX [4] (DL3); 0.05059 in the series on γ-H2AX [4] (DL4); 0.1138 with γ-H2AX [4] (DL4R). Further, the “γ-H2AX foci per cell in PBMCs, averages (Fig 3G)” value with γ-H2AX [4] (DL1, average across patients) was found to be 0.2861; with γ-H2AX [4] (DL2, average across patients) it was 0.07487; in the series on γ-H2AX [4] (DL3, average across patients) it was 0.3286; in the series with γ-H2AX [4] (DL4, average across patients) it was 0.1354; in the series with γ-H2AX [4] (DL4R, average across patients) it was 0.1974. For the same compound, the “γ-H2AX, AVERAGES foci per cell” value in the series with γ-H2AX [4] (DL1, per patient) is 0.4504 foci per cell and 0.1217 foci per cell; in the series on γ-H2AX [4] (DL2, per patient), 0.06098 foci per cell and 0.03645 foci per cell and 0.07605 foci per cell and 0.04348 foci per cell and 0.1574 foci per cell; in the series on γ-H2AX [4] (DL3, per patient), 0.574 foci per cell and 0.2632 foci per cell and 0.1488 foci per cell; in the series on γ-H2AX [4] (DL4, per patient) it was 0.05652 foci per cell and 0.07904 foci per cell and 0.3651 foci per cell and 0.04096 foci per cell; with γ-H2AX [4] (DL4R, per patient) it was 0.05895 foci per cell and 0.2317 foci per cell and 0.2655 foci per cell and 0.1875 foci per cell and 0.2432 foci per cell. For the same compound, the “γ-H2AX, AVERAGES excess foci per cell” value was 0.02853 foci per cell and -0.009408 foci per cell in the series on γ-H2AX [4] (D3 (before olaparib) minus D1, DL1, per patient); 0.01208 foci per cell and -0.0007052 foci per cell and -0.1169 foci per cell and -0.007436 foci per cell and -0.09186 foci per cell in the series on γ-H2AX [4] (D3 (before olaparib) minus D1, DL2, per patient); 0.159 foci per cell and 0.113 foci per cell and -0.06118 foci per cell in the series with γ-H2AX [4] (D3 (before olaparib) minus D1, DL3, per patient); -0.04714 foci per cell and 0.07394 foci per cell and 0.1683 foci per cell and 0.007302 foci per cell in the series on γ-H2AX [4] (D3 (before olaparib) minus D1, DL4, per patient); 0.006793 foci per cell and 0.06366 foci per cell and 0.2087 foci per cell and 0.1048 foci per cell and 0.1705 foci per cell in the series with γ-H2AX [4] (D3 (before olaparib) minus D1, DL4R, per patient). Moreover, the “γH2AX signal after CRLX101 alone” value in the series on γ-H2AX [5] (Day 3 (48 h after CRLX101, pre-olaparib) vs pre-treatment, hair follicles and PBMC) is “increase in γH2AX signal”. For the same compound, the gamma-H2AX intensities is 4.816 with γ-H2AX [5] (DL1, average per patient); 5.391 and 2.136 and 5.3349 and 5.978 and 6.804 in the series on γ-H2AX [5] (DL2, average per patient); 4.982 and 13.4338 and 12.7188 in the series with γ-H2AX [5] (DL3, average per patient); 3.4222 and 3.662 and 5.428 in the series with γ-H2AX [5] (DL4, average per patient); 4.487 and 2.444 and 10.191 and 5.772 in the series on γ-H2AX [5] (DL4R, average per patient). Also, the “excess gamma-H2AX intensities (minus D1)” value in the series with γ-H2AX [5] (DL1, per patient) was 2.945; in the series with γ-H2AX [5] (DL2, per patient) it was 2.273 and 0.6534 and 4.441 and 4.582 and 4.99; in the series with γ-H2AX [5] (DL3, per patient) it was 4.135 and 12.5502 and 12.1828; with γ-H2AX [5] (DL4, per patient), 2.309 and 3.241 and 5.235; in the series on γ-H2AX [5] (DL4R, per patient), 3.986 and 2 and 9.666 and 4.568. For the same compound, the “gamma-H2AX intensities minus D1, averages” value turned out to be 2.945 with γ-H2AX [5] (DL1); 3.388 in the series with γ-H2AX [5] (DL2); 9.623 in the series with γ-H2AX [5] (DL3); 0.8727 in the series with γ-H2AX [5] (DL4); 3.856 in the series with γ-H2AX [5] (DL4R). Further, the “gamma-H2AX intensities, averages” value was 4.816 with γ-H2AX [5] (DL1, average across patients); 5.129 with γ-H2AX [5] (DL2, average across patients); 10.3781 in the series on γ-H2AX [5] (DL3, average across patients); 4.171 in the series with γ-H2AX [5] (DL4, average across patients); 5.7233 in the series with γ-H2AX [5] (DL4R, average across patients).

Regarding `CNCc1ccc(-c2[nH]c3cc(F)cc4c3c2CCNC4=O)cc1` [rucaparib], the single agent activity result with SCLC cell lines is recorded as “striking single agent activity in a majority of SCLC cell lines tested”.

Take `CC[C@@]1(O)C(=O)OCc2c1cc1n(c2=O)Cc2cc3c(CN(C)C)c(O)ccc3nc2-1` [topotecan]: the “Topo1i % of MTD” value is 40% in series [1] (Topotecan 0.6 mg/m2/d1-5 with Veliparib 10 bid d1-5, % of single-agent MTD, ref Kummar, Can Res, 2011); 40% in series [1] (Topotecan 1 mg/m2/d1-3 with Olaparib 100 mg bid d1-21, ref Samol, Inv New Drugs, 2012); 75% in series [1] (Topotecan 3 mg/m2 d2,9,16 with Veliparib 300 mg bid, ref Hendrickson, Clin Can Res, 2017).
